How the values were obtained:
Cryptococcus neoformans [1] = assay: Disk diffusion assay, zone of inhibition; type: cell-based; settings: 250 μg. disk^−1; incubated at room temperature 42-120 hrs
From the text: (§1) Agar: Czapek Malt Agar (Himedia laboratories Ltd.) was used for culturing Microsporumn gypseum, Trichophyton mentagrophytes T. tonsurans, T. violaceum, Aspergillus fresenii and A. niger. Mycological Agar (Himedia Laboratories Ltd) was used for Cryptococcus neoformans and Candida sp.
(§2) Pathogenic fungal strains of yeast and filamentous fungi identified and gifted by Dr. Savio from Goa Medical College, Bambolim, were used for the test. Strains of Aspergillus were isolated from the infected wheat bread with sterile needle; fungal material was surface sterilized using 0.5% sodium hypochlorite for 2-3 minutes, and then washed with small brush in sterile distilled water. Washed fungal material was transferred using needle into the sterile culture media and subcultured for purification by following standard methods (Collins and Taylor, 1967). Taxonomic identification was done by using various standard keys (Ainswort et al., 1973; Onion et al., 1981) and identification confirmed by Alka Pandey of Agarkar Research Institute, Pune.
(§3) Disk diffusion assay: The disk diffusion assay was used for screening of antifungal activity of the compound. The stock solution for the test was prepared by dissolving 5 mg of the compound of formula 1 in 200 μl dimethylsulfoxide (DMSO). From the stock solution 10 μl were spread on the paper disc so as to obtain the final concentration of 250 μg disk^−1 Control disk was applied reconstituted with only dimethylsulphoxide and were dried at 28-29° C. Completely dried disk was applied to innoculated plates. The plates were incubated at room temperature for the period between 42-120 hrs. to obtain maximum growth in the culture media. The zones of inhibition around the disks were measured.

[2] = tested on: Trichophyton mentagrophytes; assay: Disk diffusion assay, zone of inhibition; type: cell-based; settings: 250 μg. disk^−1; incubated at room temperature 42-120 hrs
From the text: as §1, §2, §3

Aspergillus fresenii [3] = assay: Disk diffusion assay, zone of inhibition; type: cell-based; settings: 250 μg. disk^−1; incubated at room temperature 42-120 hrs
From the text: as §1, §2, §3

Aspergillus niger [4] = assay: Disk diffusion assay, zone of inhibition; type: cell-based; settings: 250 μg. disk^−1; incubated at room temperature 42-120 hrs
From the text: as §1, §2, §3

T. violaceum [5] = assay: Disk diffusion assay, zone of inhibition; type: cell-based; settings: 250 μg. disk^−1; incubated at room temperature 42-120 hrs
From the text: as §1, §2, §3

Microsporum gypseum [6] = assay: Disk diffusion assay, zone of inhibition; type: cell-based; settings: 250 μg. disk^−1; incubated at room temperature 42-120 hrs
From the text: as §1, §2, §3

Candida sp. [7] = assay: Disk diffusion assay, zone of inhibition; type: cell-based; settings: 250 μg. disk^−1; incubated at room temperature 42-120 hrs
From the text: as §1, §2, §3

[8] = tested on: strains of yeast and filamentous fungi; assay: In vitro antifungal activity, disk diffusion, whole panel (summary in words); type: cell-based; settings: for antifungal activity in words: all the strains of yeast and filamentous fungi tested
Procedure: (§4) Innocula were adjusted to 100 μl of Cryptococcus neoformans, Candida sp., Microsporum gypseum, Trichophyton tonsurans, T. violaceum and Trichophyton mentagrophytes and spread on the appropriate plates, excess moisture was allowed to absorb for 10 minutes before applying disks. Immediately prior to the assay, the testing compound of formula 1, object of the present invention, the reference compounds amphotericin B and nystatin, potency approx:750 μ/mg and 480 USP unit/mg respectively, were reconstituted in triplicate in dimethylsulfoxide. […] From the stock solution 10 μl were spread on the paper disk so as to obtain final concentration of 50 μg disc^−1, 25 μg disc^−1, 12.5 μg disc^−1, 6.25 μg disc^−1 and 3.12 μg disk^−1. Disks were dried at reduced pressure in the dessicator, at 28-29° C. and applied to innoculated plates.
(§5) In testing, the compound of formula 1 was reconstituted in dimethylsulfoxide (DMSO) immediately prior to all assays. Dimethylsulfoxide (DMSO) alone had no detectable inhibitory effect on any of the tested microbes. Compound of formula 1 was tested against a diverse collection of yeast and filamentous fungi, some of which are resistant to the reference compound nystatin. Filamentous fungi were nystatin resistant.

T. tonsurans [9] = assay: Disk diffusion assay, zone of inhibition; type: cell-based, Trichophyton tonsurans; settings: 250 μg. disk^−1; incubated at room temperature 42-120 hrs
From the text: as §1, §2
Disk diffusion assay: The disk diffusion assay was used for screening of antifungal activity of the compound. The stock solution for the test was prepared by dissolving 5 mg of the compound of formula 1 in 200 μl dimethylsulfoxide (DMSO). […] The zones of inhibition around the disks were measured.

Cryptococcus neoformans [10] = assay: Minimum Inhibitory Concentration (MIC), disk diffusion method; type: cell-based; settings: 3.12-50 μg per disk tested, 42-120 hrs at room temperature
From the text: as §1, §2, §4, §5

[11] = tested on: Trichophyton mentagrophytes; assay: as above; type: cell-based; settings: 3.12-50 μg per disk tested, 42-120 hrs at room temperature
From the text: as §1, §2, §4, §5

Aspergillus fresenii [12] = assay: as above; type: cell-based; settings: 3.12-50 μg per disk tested, 42-120 hrs at room temperature
From the text: as §1, §2, §4, §5

T. violaceum [13] = assay: as above; type: cell-based; settings: 3.12-50 μg per disk tested, 42-120 hrs at room temperature
From the text: as §1, §2, §4, §5

Microsporum gypseum [14] = assay: as above; type: cell-based; settings: 3.12-50 μg per disk tested, 42-120 hrs at room temperature
From the text: as §1, §2, §4, §5

Candida sp. [15] = assay: as above; type: cell-based; settings: 3.12-50 μg per disk tested, 42-120 hrs at room temperature
From the text: as §1, §2, §4, §5

T. tonsurans [16] = assay: as above; type: cell-based, Trichophyton tonsurans; settings: 3.12-50 μg per disk tested, 42-120 hrs at room temperature
From the text: as §1, §2
Innocula were adjusted to 100 μl of Cryptococcus neoformans, Candida sp., Microsporum gypseum, Trichophyton tonsurans, T. violaceum and Trichophyton mentagrophytes and spread on the appropriate plates, excess moisture was allowed to absorb for 10 minutes before applying disks. […]

Aspergillus niger [17] = assay: as above; type: cell-based; settings: 3.12-50 μg per disk tested, 42-120 hrs at room temperature
From the text: as §1, §2, §4, §5

Cladosporium cucumerinum = settings: plant pathogenic fungus Cladosporium cucumerinum; cited from earlier work

With “3-O-α-rhamnopyranosyl-rhamnopyranosyl-glucopyranosyl-glucoronopyranosylgluco-pyrano side 16 α-hydroxy-13,28-epoxy oleanane [Compound 1]” the “Disk Diffusion Method, zone of inhibition” value (Cryptococcus neoformans [1]) was 9 mm, the “Disk Diffusion Method, zone of inhibition” value [2] was 12 mm and the “Disk Diffusion Method, zone of inhibition” value (Aspergillus fresenii [3]) was 10 mm. For the same compound, the “Disk Diffusion Method, zone of inhibition” value (Aspergillus niger [4]) was 4 mm, the “Disk Diffusion Method, zone of inhibition” value (T. violaceum [5]) was 13 mm and the “Disk Diffusion Method, zone of inhibition” value (Microsporum gypseum [6]) was 14 mm. For the same compound, the “Disk Diffusion Method, zone of inhibition” value (Candida sp. [7]) was 9 mm, the “antifungal activity in words” value [8] was “fungicidal against all the strains of yeast and filamentous fungi tested except Aspergillus niger” and the “Disk Diffusion Method, zone of inhibition” value (T. tonsurans [9]) was 14 mm. The MIC (Cryptococcus neoformans [10]) was 6.25-12.5 μg. disk^−1, the MIC [11] was 25-50 μg. disk^−1 and the MIC (Aspergillus fresenii [12]) was 25-50 μg. disk^−1. For the same compound, the MIC (T. violaceum [13]) was 25-50 μg. disk^−1, the MIC (Microsporum gypseum [14]) was 12.5-25 μg. disk^−1 and the MIC (Candida sp. [15]) was 6.25-12.5 μg. disk^−1. For the same compound, the MIC (T. tonsurans [16]) was 12.5-25 μg. disk^−1.
In the case of `C[C@@H]1[C@H](O)[C@@H](C)/C=C/C=C/C=C/C=C/C=C/C=C/C=C/[C@H](O[C@@H]2O[C@H](C)[C@@H](O)[C@H](N)[C@@H]2O)C[C@@H]2O[C@](O)(C[C@@H](O)C[C@@H](O)[C@H](O)CC[C@@H](O)C[C@@H](O)CC(=O)O[C@H]1C)C[C@H](O)[C@H]2C(=O)O` [Amphotericin B, reference compound], the “antifungal activity in words” value [8] is reported as “sensitive”, the MIC (Cryptococcus neoformans [10]) is reported as 3.12-6.25 μg. disk^−1 and the MIC [11] is reported as 6.25-12.5 μg. disk^−1. The MIC (Aspergillus fresenii [12]) was 12.5-25 μg. disk^−1, the MIC (Aspergillus niger [17]) was 12.5-25 μg. disk^−1 and the MIC (T. violaceum [13]) was 6.25-12.5 μg. disk^−1. For the same compound, the MIC (Microsporum gypseum [14]) was 6.25-12.5 μg. disk^−1, the MIC (Candida sp. [15]) was 3.12-6.25 μg. disk^−1 and the MIC (T. tonsurans [16]) was 6.25-12.5 μg. disk^−1.
With `C[C@@H]1[C@H](O)[C@@H](C)/C=C/C=C/CC/C=C/C=C/C=C/C=C/C(O[C@H]2O[C@H](C)[C@@H](O)[C@H](N)[C@@H]2O)CC2O[C@](O)(CC(O)C(O)CCC(O)CC(O)CC(O)CC(=O)O[C@H]1C)CC(O)C2C(=O)O` (some centres unmarked) [Nystatin] the “sensitivity of filamentous fungi in words” value ([8]; filamentous fungi) was “resistant”, the MIC (Cryptococcus neoformans [10]) was 6.25-12.5 μg. disk^−1 and the MIC (Candida sp. [15]) was 6.25-12.5 μg. disk^−1.
For Sakurasaponin, the “antifungal amount in TLC bioassay” value (Cladosporium cucumerinum) is given as 1 µg.

— patent US6777004B1, “Composition containing novel compound corniculatonin having antifungi properties and a process for preparing the same” (Council of Scientific & Industrial Research, priority 2001, dated 2004)
